Measured values taken from the NIST ThermoML archive (doi:10.1021/je0202073).
Numbers after ± are expanded uncertainties.

What was measured:
[1] = xn = mol fraction of the nth substance listed; conditions: 101.3 kPa, Liquid
[2] = excess molar enthalpy (molar enthalpy of mixing); xn = mol fraction of the nth substance listed; conditions: 101.3 kPa, Liquid, Calvet calorimetry

Structure (SMILES): CC(C)(C)O [2-methylpropan-2-ol] + CCOC(C)=O
- excess molar volume ([1]; 303.15 K, x2 = 0.0458): 1.14e-06 ± 7e-08 m3/mol
- excess molar volume ([1]; 303.15 K, x2 = 0.0972): 2.65e-06 ± 8e-08 m3/mol
- excess molar volume ([1]; 303.15 K, x2 = 0.1702): 4.43e-06 ± 9e-08 m3/mol
- excess molar volume ([1]; 303.15 K, x2 = 0.1982): 4.99e-06 ± 8e-08 m3/mol
- excess molar volume ([1]; 303.15 K, x2 = 0.2483): 5.78e-06 ± 9e-08 m3/mol
- excess molar volume ([1]; 303.15 K, x2 = 0.2718): 6.12e-06 ± 9e-08 m3/mol
- excess molar volume ([1]; 303.15 K, x2 = 0.3074): 6.6e-06 ± 9e-08 m3/mol
- excess molar volume ([1]; 303.15 K, x2 = 0.3613): 7.08e-06 ± 1e-07 m3/mol
- excess molar volume ([1]; 303.15 K, x2 = 0.3973): 7.3e-06 ± 1e-07 m3/mol
- excess molar volume ([1]; 303.15 K, x2 = 0.4626): 7.52e-06 ± 1e-07 m3/mol
- excess molar volume ([1]; 303.15 K, x2 = 0.5178): 7.55e-06 ± 1e-07 m3/mol
- excess molar volume ([1]; 303.15 K, x2 = 0.5274): 7.54e-06 ± 1e-07 m3/mol
- excess molar volume ([1]; 303.15 K, x2 = 0.5449): 7.51e-06 ± 1e-07 m3/mol
- excess molar volume ([1]; 303.15 K, x2 = 0.5624): 7.48e-06 ± 1e-07 m3/mol
- excess molar volume ([1]; 303.15 K, x2 = 0.5722): 7.42e-06 ± 1e-07 m3/mol
- excess molar volume ([1]; 303.15 K, x2 = 0.5885): 7.35e-06 ± 1e-07 m3/mol
- excess molar volume ([1]; 303.15 K, x2 = 0.5998): 7.3e-06 ± 1e-07 m3/mol
- excess molar volume ([1]; 303.15 K, x2 = 0.6022): 7.27e-06 ± 1e-07 m3/mol
- excess molar volume ([1]; 303.15 K, x2 = 0.6086): 7.2e-06 ± 1e-07 m3/mol
- excess molar volume ([1]; 303.15 K, x2 = 0.6124): 7.17e-06 ± 1e-07 m3/mol
- excess molar volume ([1]; 303.15 K, x2 = 0.6336): 7.06e-06 ± 1e-07 m3/mol
- excess molar volume ([1]; 303.15 K, x2 = 0.6501): 6.87e-06 ± 1e-07 m3/mol
- excess molar volume ([1]; 303.15 K, x2 = 0.7084): 6.24e-06 ± 9e-08 m3/mol
- excess molar volume ([1]; 303.15 K, x2 = 0.7732): 5.29e-06 ± 9e-08 m3/mol
- excess molar volume ([1]; 303.15 K, x2 = 0.8111): 4.6e-06 ± 8e-08 m3/mol
- excess molar volume ([1]; 303.15 K, x2 = 0.8533): 3.72e-06 ± 8e-08 m3/mol
- excess molar volume ([1]; 303.15 K, x2 = 0.8915): 2.84e-06 ± 8e-08 m3/mol
- excess molar volume ([1]; 303.15 K, x2 = 0.9686): 8.6e-07 ± 7e-08 m3/mol
- excess molar volume ([1]; 318.15 K, x2 = 0.0796): 2.37e-06 ± 7e-08 m3/mol
- excess molar volume ([1]; 318.15 K, x2 = 0.1377): 3.7e-06 ± 8e-08 m3/mol
- excess molar volume ([1]; 318.15 K, x2 = 0.1899): 4.83e-06 ± 9e-08 m3/mol
- excess molar volume ([1]; 318.15 K, x2 = 0.2558): 6.14e-06 ± 1e-07 m3/mol
- excess molar volume ([1]; 318.15 K, x2 = 0.2985): 6.84e-06 ± 1e-07 m3/mol
- excess molar volume ([1]; 318.15 K, x2 = 0.3703): 7.44e-06 ± 1e-07 m3/mol
- excess molar volume ([1]; 318.15 K, x2 = 0.4344): 7.86e-06 ± 1e-07 m3/mol
- excess molar volume ([1]; 318.15 K, x2 = 0.4633): 7.93e-06 ± 1e-07 m3/mol
- excess molar volume ([1]; 318.15 K, x2 = 0.5377): 7.95e-06 ± 1.1e-07 m3/mol
- excess molar volume ([1]; 318.15 K, x2 = 0.5626): 7.87e-06 ± 1e-07 m3/mol
- excess molar volume ([1]; 318.15 K, x2 = 0.6284): 7.55e-06 ± 1e-07 m3/mol
- excess molar volume ([1]; 318.15 K, x2 = 0.6913): 7e-06 ± 1e-07 m3/mol
- excess molar volume ([1]; 318.15 K, x2 = 0.767): 5.96e-06 ± 9e-08 m3/mol
- excess molar volume ([1]; 318.15 K, x2 = 0.8516): 4.18e-06 ± 8e-08 m3/mol
- excess molar volume ([1]; 318.15 K, x2 = 0.8891): 3.61e-06 ± 8e-08 m3/mol
- excess molar volume ([1]; 318.15 K, x2 = 0.9294): 2.37e-06 ± 8e-08 m3/mol
- excess molar enthalpy ([2]; 299.15 K, x2 = 0.0546): 0.0899 ± 0.00311 kcal/mol
- excess molar enthalpy ([2]; 299.15 K, x2 = 0.1163): 0.178 ± 0.00359 kcal/mol
- excess molar enthalpy ([2]; 299.15 K, x2 = 0.181): 0.263 ± 0.00406 kcal/mol
- excess molar enthalpy ([2]; 299.15 K, x2 = 0.2456): 0.332 ± 0.00454 kcal/mol
- excess molar enthalpy ([2]; 299.15 K, x2 = 0.3079): 0.385 ± 0.00502 kcal/mol
- excess molar enthalpy ([2]; 299.15 K, x2 = 0.3672): 0.422 ± 0.00526 kcal/mol
- excess molar enthalpy ([2]; 299.15 K, x2 = 0.4207): 0.445 ± 0.0055 kcal/mol
- excess molar enthalpy ([2]; 299.15 K, x2 = 0.4707): 0.459 ± 0.00574 kcal/mol
- excess molar enthalpy ([2]; 299.15 K, x2 = 0.5157): 0.464 ± 0.00574 kcal/mol
- excess molar enthalpy ([2]; 299.15 K, x2 = 0.5541): 0.462 ± 0.00574 kcal/mol
- excess molar enthalpy ([2]; 299.15 K, x2 = 0.564): 0.46 ± 0.00574 kcal/mol
- excess molar enthalpy ([2]; 299.15 K, x2 = 0.6199): 0.444 ± 0.0055 kcal/mol
- excess molar enthalpy ([2]; 299.15 K, x2 = 0.68): 0.413 ± 0.00526 kcal/mol
- excess molar enthalpy ([2]; 299.15 K, x2 = 0.7438): 0.365 ± 0.00502 kcal/mol
- excess molar enthalpy ([2]; 299.15 K, x2 = 0.8091): 0.299 ± 0.0043 kcal/mol
- excess molar enthalpy ([2]; 299.15 K, x2 = 0.8769): 0.212 ± 0.00382 kcal/mol
- excess molar enthalpy ([2]; 299.15 K, x2 = 0.9385): 0.117 ± 0.00335 kcal/mol
- excess molar enthalpy ([2]; 318.15 K, x2 = 0.0538): 0.0799 ± 0.00311 kcal/mol
- excess molar enthalpy ([2]; 318.15 K, x2 = 0.1146): 0.164 ± 0.00335 kcal/mol
- excess molar enthalpy ([2]; 318.15 K, x2 = 0.1733): 0.24 ± 0.00382 kcal/mol
- excess molar enthalpy ([2]; 318.15 K, x2 = 0.2313): 0.307 ± 0.0043 kcal/mol
- excess molar enthalpy ([2]; 318.15 K, x2 = 0.2953): 0.361 ± 0.00478 kcal/mol
- excess molar enthalpy ([2]; 318.15 K, x2 = 0.3487): 0.396 ± 0.00502 kcal/mol
- excess molar enthalpy ([2]; 318.15 K, x2 = 0.3987): 0.422 ± 0.00526 kcal/mol
- excess molar enthalpy ([2]; 318.15 K, x2 = 0.4461): 0.438 ± 0.0055 kcal/mol
- excess molar enthalpy ([2]; 318.15 K, x2 = 0.4878): 0.445 ± 0.0055 kcal/mol
- excess molar enthalpy ([2]; 318.15 K, x2 = 0.5176): 0.448 ± 0.0055 kcal/mol
- excess molar enthalpy ([2]; 318.15 K, x2 = 0.5676): 0.444 ± 0.0055 kcal/mol
- excess molar enthalpy ([2]; 318.15 K, x2 = 0.6236): 0.429 ± 0.0055 kcal/mol
- excess molar enthalpy ([2]; 318.15 K, x2 = 0.6844): 0.398 ± 0.00502 kcal/mol
- excess molar enthalpy ([2]; 318.15 K, x2 = 0.7436): 0.352 ± 0.00478 kcal/mol
- excess molar enthalpy ([2]; 318.15 K, x2 = 0.8108): 0.285 ± 0.0043 kcal/mol
- excess molar enthalpy ([2]; 318.15 K, x2 = 0.8797): 0.198 ± 0.00359 kcal/mol
- excess molar enthalpy ([2]; 318.15 K, x2 = 0.9442): 0.104 ± 0.00311 kcal/mol
